Results as given in PMC10626578, “Designed switch from covalent to non-covalent inhibitors of carboxylesterase Notum activity” (European Journal of Medicinal Chemistry, 2023).

target: T1, Notum (core, 81–451C330S) (Homo sapiens, UniProt Q6P988, C330S); experiment: Notum-OPTS biochemical assay, Notum (81–451C330S); conditions: Table 1; mean ± s.d. of n = 2–6; inactive = <20% inhibition @ 10 μM; >10 = 20–50% inhibition @ 10 μM; 2a covalent, IC50 time-dependant
T1 construct: high-throughput biochemical assay with Notum (81–451C330S) and OPTS as a synthetic fluorescent substrate; made in house
T1 sequence (Q6P988 81-451 C330S): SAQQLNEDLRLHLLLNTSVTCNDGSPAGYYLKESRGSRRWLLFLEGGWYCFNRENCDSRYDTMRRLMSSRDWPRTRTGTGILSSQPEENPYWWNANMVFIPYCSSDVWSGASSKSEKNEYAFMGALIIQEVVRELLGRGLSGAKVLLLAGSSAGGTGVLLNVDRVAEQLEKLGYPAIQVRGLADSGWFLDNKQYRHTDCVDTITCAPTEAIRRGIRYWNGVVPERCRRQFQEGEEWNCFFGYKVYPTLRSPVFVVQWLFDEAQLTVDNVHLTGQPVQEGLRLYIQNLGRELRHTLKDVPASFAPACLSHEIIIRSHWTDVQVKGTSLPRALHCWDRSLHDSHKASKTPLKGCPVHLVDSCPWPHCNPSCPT
Method: Notum inhibitors 3–5 (Table 1, Table 2, Table 3, Table 4) were either purchased or prepared using established synthetic methods from readily available starting materials (Scheme 1). Where necessary, the synthesis of many of these amines (e.g. 6) have been reported previously and full details of their preparation have been included in the Experimental Section. Notum inhibition activity was determined using the standard Notum-OPTS biochemical assay using IC50 values. These values were used to compare relative activities with covalent inhibitors under carefully regulated assay conditions. […] Selected inhibitors were screened for inhibition of Notum activity in a TCF/LEF Reporter (Luciferase) cell line with exogenous WNT3a and Notum, and soaked into Notum crystals to determine their binding modes and evidence of MoA.
Methods have been described in detail.

Notum IC50 | SMILES
inactive ^c | CC(=O)N1CCC(c2ccccc2)C1 (stereo not shown) [Compound 3f, 1-(3-Phenylpyrrolidin-1-yl)ethan-1-one]
inactive ^c | CC(=O)n1cnc2ccccc21 [Compound 3l, 1-(1H-Benzo[d]imidazole-1-yl)ethan-1-one]

same assay, conditions: Table 1; mean ± s.d. of n = 2–6; inactive = <20% inhibition @ 10 μM; >10 = 20–50% inhibition @ 10 μM; 2a covalent, IC50 time-dependant; read-out: Notum IC50

SMILES | IC50
CC(=O)n1ccc2ccccc21 [Compound 3b, 1-(1H-Indol-1-yl)ethan-1-one] | 5300 ± 1200 nM
CC(=O)N1Cc2ccccc2C1 [Compound 3d, 1-(Isoindolin-2-yl)ethan-1-one] | 2200 ± 400 nM
O=C1CCCN1c1ccccc1 [Compound 3g, 1-Phenylpyrrolidin-2-one] | > 10000 nM
CC(=O)N(C)c1ccccc1C [Compound 3h, N-Methyl-N-(o-tolyl)acetamide] | > 10000 nM
CC(=O)N1CC(=O)c2ccccc21 [Compound 3i, 1-Acetylindolin-3-one] | 690 ± 120 nM
CC(=O)N1C(=O)Cc2ccccc21 [Compound 3j, 1-Acetylindolin-2-one] | 3200 ± 660 nM
CC(=O)n1ncc2ccccc21 [Compound 3k, 1-(1H-Indazol-1-yl)ethan-1-one] | > 10000 nM

Next, values leading:

IC50 | SMILES
2500 ± 1000 nM | CC(=O)N1CCCc2ccccc21 [Compound 3c, 1-(3,4-Dihydroquinolin-1(2H)-yl)ethan-1-one]
8000 ± 2200 nM | CC(=O)N1CCc2ccccc2C1 [Compound 3e, 1-(3,4-Dihydroisoquinolin-2(1H)-yl)ethan-1-one]
2800 ± 1800 nM | CC(=O)N1CCOc2ccccc21 [Compound 3m, 1-(2,3-Dihydro-4H-benzo[b][1,4]oxazin-4-yl)ethan-1-one]
3600 ± 100 nM | CC(=O)N1CCSc2ccccc21 [Compound 3n, 1-(2,3-Dihydro-4H-benzo[b][1,4]thiazin-4-yl)ethan-1-one]
> 10000 nM | CC(=O)N1CCS(=O)(=O)c2ccccc21 [Compound 3o, 1-(1,1-Dioxido-2,3-dihydro-4H-benzo[b][1,4]thiazin-4-yl)ethan-1-one]

same assay, conditions: Table 2; mean ± s.d. of n = 4–12; >10 = 20–50% inhibition @ 10 μM; read-out: Notum IC50

SMILES | IC50
CC(=O)N1CC(C)c2ccccc21 (stereo not shown) [Compound 4b, 1-(3-Methylindolin-1-yl)ethan-1-one] | 260 ± 80 nM
CC(=O)N1CC(C)(C)c2ccccc21 [Compound 4c, 1-(3,3-Dimethylindolin-1-yl)ethan-1-one] | 1400 ± 400 nM
CC(=O)N1c2ccccc2C2(C)CC12 (stereo not shown) [Compound 4f, 1-(6b-Methyl-1a,6b-dihydrocyclopropa[b]indol-2(1H)-yl)ethan-1-one] | 4100 ± 800 nM
CC(=O)N1CCc2cc(Cl)ccc21 [Compound 4h, 1-(5-Chloroindolin-1-yl)ethan-1-one] | 95 ± 14 nM
CC(=O)N1CCc2ccc(Cl)cc21 [Compound 4i, 1-(6-Chloroindolin-1-yl)ethan-1-one] | 1400 ± 200 nM
CC(=O)N1CCc2cccc(Cl)c21 [Compound 4j, 1-(7-Chloroindolin-1-yl)ethan-1-one] | 6400 ± 900 nM
CC(=O)N1CCc2c(C#N)cccc21 [Compound 4l, 1-Acetylindoline-4-carbonitrile] | 1500 ± 200 nM
COc1cccc2c1CCN2C(C)=O [Compound 4n, 1-(4-Methoxyindolin-1-yl)ethan-1-one] | 670 ± 70 nM
CC(=O)N1CCc2c(C3CC3)cccc21 [Compound 4p, 1-(4-Cyclopropylindolin-1-yl)ethan-1-one] | 290 ± 140 nM

Continued, values first:

IC50 | SMILES
2400 ± 1200 nM | CC(=O)N1c2ccccc2CC1C (stereo not shown) [Compound 4a, 1-(2-Methylindolin-1-yl)ethan-1-one]
1800 ± 1200 nM | CC(=O)N1CC2(CCC2)c2ccccc21 [Compound 4e, 1-(Spiro[cyclobutane-1,3′-indolin]-1′-yl)ethan-1-one]
83 ± 16 nM | CC(=O)N1CCc2c(C)cccc21 [Compound 4k, 1-(4-Methylindolin-1-yl)ethan-1-one]
93 ± 2 nM | CC(=O)N1CCc2c(F)cccc21 [Compound 4m, 1-(4-Fluoroindolin-1-yl)ethan-1-one]
220 ± 20 nM | CC(=O)N1CCc2cc(C)ccc21 [Compound 4q, 1-(5-Methylindolin-1-yl)ethan-1-one]

same assay, conditions: vs 3a; more potent

fold increase in Notum inhibition over 3a | SMILES
2 fold | CC(=O)N1CC(C)c2ccccc21 (stereo not shown) [Compound 4b, 1-(3-Methylindolin-1-yl)ethan-1-one]

same assay, conditions: vs 3a; weaker

fold decrease in Notum inhibition compared to 3a | SMILES
10 fold | CC(=O)n1ccc2ccccc21 [Compound 3b, 1-(1H-Indol-1-yl)ethan-1-one]
6 fold | CC(=O)N1CCCc2ccccc21 [Compound 3c, 1-(3,4-Dihydroquinolin-1(2H)-yl)ethan-1-one]
